Experimental data: patent publication US6613937B2, “S-nitroso- and S-nitro-N-acyl-L-cysteine ester derivatives as pharmalogically active agents and pharmaceutical compositions containing said compounds” (priority 1999, dated 2003)
Blank lines part the entries; values can stand above or below the compound they belong to.

Tests used:
[1] = in vitro and in vivo, humans; cited from earlier work
[2] = humans; cited from earlier work
[3] = system: human Corpus Cavernosum; test: Relaxation of the human Corpus Cavernosum in vitro; settings: FIG. 1a
Text: A. Relaxation of the Human Corpus Cavernosum in vitro by Means of S-nitroso-N-acetylcysteine ethyl ester, S-nitroso-N-(O-acetylsalicyl)cysteine ethyl ester and Their Metabolites
a. Relaxation of the human Corpus Cavernosum in vitro by S-nitroso-N-acetylcysteine-ethylester (SNACET), S-nitroso-N-(O-acetylsalicyl)cysteine ethyl ester (ASS-SNCET) and their metabolites SNCET and SNAC.

[4] = system: thromboxane synthesis in human blood platelets; test: Inhibition of collagen-induced thromboxane synthesis in washed human blood platelets in vitro; assay type: cell-based; settings: Platelet, collagen-induced (2 μg/ml)
Description: (§1) Collagen-induced (2 μg/ml) aggregation and thromboxane synthesis in human blood platelets which have been washed are inhibited by SNACET in a concentration-dependent manner (FIG. 4a). The IC50s for the inhibition of the platelet aggregation and the thromboxane synthesis by SNACET are determined at 1 and 0.5 μM. Collagen-induced (2 μg/ml) aggregation of human blood platelets that have been washed is inhibited by ASS-SNCET in a concentration-dependent manner (FIG. 4b). The IC50 for the inhibition of the platelet aggregation by ASS-SNCET is determined at 2 μM (FIG. 4b).
(§2) a. Inhibition of the collagen-induced (2 μg/ml) aggregation of human blood platelets that have been washed and the thromboxane synthesis in the platelets in vitro by S-nitroso-N-acetylcysteine ethyl ester (SNACET).

[5] = system: human arteria mammaria; test: Relaxation of the human arteria mammaria in vitro; settings: FIG. 1b
Text: B. Relaxation of the Human Arteria Mammaria in vitro by S-nitroso-N-acetylcysteine ethyl ester and S-nitro-N-acetylcysteine ethyl ester
b. Relaxation of the human arteria mammaria in vitro by S-nitroso-N-acetylxysteine ethyl ester (SNACET) and S-nitro-N-acetylcysteine ethyl ester (SNO2ACET).

[6] = Penetration by human Tunica albuginea in vitro in a Franz' cell; assay type: in vitro ADME; settings: SNACET in dimethyl sulphoxide, FIG. 2
Description: Penetration of S-nitroso-N-acetylsysteine ethyl ester (SNACET) by Human Tunica albuginea in vitro
Part of Tunica albuginea which has just been prepared is fixed in a Franz' cell. The active surface is 1.77 cm^2. The acceptor phase (10 ml) consists of Hank's buffer (pH 7.4), human albumin (30 g/l), penicillin G (100 units) and streptomycin (10 μg) and is stirred with a magnetic stirrer at a constant rotation speed. The penetration is started by application of solutions of SNACET in dimethyl sulphoxide at various concentrations (0.25 ml) on the part of the skin. At various points in time, samples are taken from the acceptor phase and the concentration of the sum from SNACET and its metabolites is determined. In the acceptor phase, unmodified SNACET and other metabolites including nitrite are detected. […] The penetration rate and the amount of the penetrated SNACET and their metabolites in the acceptor phase depend on the amount of SNACET applied onto the Tunica albuginea. The lag time is approximately 20 min. In the linear region, the penetration rates are 1.0, 2.5 or 5.0 μmol SNACET/hour.
Penetration of S-nitroso-N-acetylcysteine ethyl ester (SNACET) by human Tunica albuginea in vitro in a Franz' cell. Three different amounts dissolved in dimethyl sulphoxide (250 μl each) were applied (see Legend).

[7] = system: Sprague Dawley rat; test: Hypotensive effect in vivo in the rat (i.v. infusion, average artery blood pressure); settings: anaesthetised male Sprague Dawley rat, FIG. 3
Text: Hypotensive Effect of SNACET in vivo in the Rat
S-nitroso-N-acetylcysteine-ethylester (SNACET) is applied i.v. to a male, anaesthetised Sprague Dawley rat which has a weight of 400 g. Before and after the infusion, the average artery blood pressure is taken continuously.
Hypotensive effect of SNACET in vivo in the rat. SNACET was applied i.v. with the infusion rates stated.

[8] = system: human blood platelets; test: Inhibition of collagen-induced aggregation of washed human blood platelets in vitro; assay type: cell-based; settings: Platelet, collagen-induced (2 μg/ml)
Description: Inhibition of the Aggregation of Human Blood Platelets in vitro by Means of S-nitroso-N-acetylcysteine ethyl ester (SNACET) and S-nitroso-N-(O-acetylsalicyl)cysteine ethyl ester (ASS-SNCET)
as §1, §2
b. Inhibition of the collagen-induced (2 μg/ml) aggregation of human blood platelets in vitro that have been washed by S-nitroso-N-(O-acetylsalicyl)cysteine ethyl ester (ASS-SNCET). The values are average values from analyses with platelets of four healthy subjects.

[9] = In vivo metabolism of orally applied 15N-marked SNACET in the rat (urine, GC-MS); settings: oral 17.5 mg/kg
Description: In vivo Metabolism of Orally Applied ^15N-marked S-nitroso-N-acetylcysteine ethyl ester (^15N-SNACET) in the Rat
A male Sprague Dawley rat weighing 480 g is orally given 17.5 mg of ^15N-marked S-nitroso-N-acetylcysteine ethyl ester (^15N-SNACET) per kg body weight, dissolved in 1 ml of a 10% (w/v) glucose solution in drinking water. Before and up to 24 hours after application, urine is collected and the ^15N-concentration of nitrate, nitrite and S-nitroso metabolites of ^15N-SNACET is determined by means of GC-MS.
Metabolism of orally applied ^15N-marked S-nitroso-N-acetylcysteine-ethylester (17.5 mg/kg body weight) in a rat. ^15N-concentration of nitrate, nitrite and for the sum of ^15N-marked S-nitroso-N-acetylcysteine ethyl ester and its metabolites collected in the urine before and up to 24 hours after the application.

[10] = in vivo in an animal; cited from earlier work

Compound: N[C@@H](CCC(=O)N[C@@H](CSN=O)C(=O)NCC(=O)O)C(=O)O [S-nitroso glutathion, S-nitroso-L-glutathion]
- Anti-hypertensive and anti-aggregatory effect [1]: have an anti-hypertensive and an anti-aggregatory effect in humans
- Rate of embolism [2]: reduces the rate of embolism in humans

Compound: CC(=O)N[C@@H](CSN=O)C(=O)O [SNAC, S-nitroso-N-acetylcysteine]
- Relaxation of human Corpus Cavernosum [3]: relax human Corpus Cavernosum in vitro in a concentration-dependent manner

- IC50 [4]: 500 nM
- Penetration of the Tunica albuginea [6]: penetrates the Tunica albuginea
- IC50 [8]: 1000 nM
Compound: CCOC(=O)[C@H](CSN=O)NC(C)=O [SNACET, S-nitroso-N-acetylcysteine ethyl ester]
- Relaxation of human arteria mammaria [5]: relax human arteria mammaria in vitro in a concentration-dependent manner
- Average artery blood pressure [7]: the average artery blood pressure decreases in dependence on the infusion rate
- Relaxation of human Corpus Cavernosum [3]: relax human Corpus Cavernosum in vitro in a concentration-dependent manner

Compound: CCOC(=O)[C@@H](N)CSN=O [SNCET, S-nitroso-cysteine ethyl ester]
- Relaxation of human Corpus Cavernosum [3]: relax human Corpus Cavernosum in vitro in a concentration-dependent manner

Compound: CCOC(=O)[C@H](CS[N+](=O)[O-])NC(C)=O [SNO2-ACET, S-nitro-N-acetylcysteine ethyl ester]
- Relaxation of human arteria mammaria [5]: relax human arteria mammaria in vitro in a concentration-dependent manner

- Time of the highest 15N-concentration in urine [9]: within the first two hours
- Main metabolite in urine ([9]; urine up to 24 hours): ^15N-nitrate
Compound: CCOC(=O)[C@H](CS[15N]=O)NC(C)=O [^15N-SNACET, ^15N-marked S-nitroso-N-acetylcysteine ethyl ester]
- 15N-concentration in the urine 24 hours after the administration ([9]; 24 hours): insignificantly higher than the natural occurrence of ^15N
- Secretion of unchanged compound and S-nitroso metabolites into the urine ([9]; urine up to 24 hours): neither ^15N-SNACET no other S-[^15N]nitroso-containing metabolites are secreted into the urine

Compound: S-nitroso-N-acetyl penicillamines [SNAP]
- Development of tolerance [10]: show no development of tolerance
